pIC50: −log10 of the molar value.
Molecular target: T1, human TLR7 (Homo sapiens, UniProt Q9NYK1)
T1 sequence (Q9NYK1 27-1049): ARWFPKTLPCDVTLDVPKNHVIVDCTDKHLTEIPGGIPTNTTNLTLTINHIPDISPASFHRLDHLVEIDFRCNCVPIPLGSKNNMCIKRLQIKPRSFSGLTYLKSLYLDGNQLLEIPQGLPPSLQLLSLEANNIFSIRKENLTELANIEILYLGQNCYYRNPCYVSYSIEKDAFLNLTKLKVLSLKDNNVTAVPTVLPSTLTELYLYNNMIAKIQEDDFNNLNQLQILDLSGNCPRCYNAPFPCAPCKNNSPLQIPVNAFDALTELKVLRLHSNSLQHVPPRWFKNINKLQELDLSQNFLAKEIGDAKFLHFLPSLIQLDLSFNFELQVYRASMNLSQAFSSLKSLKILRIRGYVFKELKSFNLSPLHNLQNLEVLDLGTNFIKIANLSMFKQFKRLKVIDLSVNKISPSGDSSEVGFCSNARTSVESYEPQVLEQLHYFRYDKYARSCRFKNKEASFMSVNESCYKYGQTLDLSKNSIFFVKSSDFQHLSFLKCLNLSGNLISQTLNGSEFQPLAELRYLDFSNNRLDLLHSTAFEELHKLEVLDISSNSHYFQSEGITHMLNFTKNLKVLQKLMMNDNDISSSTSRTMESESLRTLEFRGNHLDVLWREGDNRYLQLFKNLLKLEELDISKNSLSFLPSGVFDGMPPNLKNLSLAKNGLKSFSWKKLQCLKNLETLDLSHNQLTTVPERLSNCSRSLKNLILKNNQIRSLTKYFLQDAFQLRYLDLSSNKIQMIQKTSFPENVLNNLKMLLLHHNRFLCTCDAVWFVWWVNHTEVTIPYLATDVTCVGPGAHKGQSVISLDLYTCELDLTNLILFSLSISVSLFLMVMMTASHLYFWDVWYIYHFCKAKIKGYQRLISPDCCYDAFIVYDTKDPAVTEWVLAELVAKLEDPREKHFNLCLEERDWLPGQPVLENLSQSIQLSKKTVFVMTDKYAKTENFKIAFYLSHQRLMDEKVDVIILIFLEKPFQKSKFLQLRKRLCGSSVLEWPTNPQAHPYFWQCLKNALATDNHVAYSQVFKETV
Test: HEK293-Blue-hTLR-7 cells assay
Assay type: cell-based
Conditions: HEK293-Blue-hTLR7 cells, R848 stimulation, 20 hrs, SEAP reporter; read-out: HEK/hTLR7 IC50
Outline: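 HEK293-Blue-hTLR7 cells (NF-κB/AP-1-driven SEAP reporter) incubated with serially diluted compound (1% DMSO final) and R848 agonist for 20 h at 37 °C. Supernatant SEAP measured with QUANTI-Blue (2 h, 37 °C) by absorbance at 620-655 nm; antagonism seen as reduced reporter.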

Structure (SMILES)	pIC50
[2H]c1ccc2c(N3C[C@@H](C)N4Cc5cc(N6CC(C)(N)C6)ccc5[C@H]4C3)ccc(C#N)c2n1 [Example 92, 5-[(4R,10bS)-8-(3-amino-3-methyl-azetidin-1-yl)-4-methyl-3,4,6,10b-tetrahydro-1H-pyrazino[2,1-a]isoindol-2-yl]-2-deuterio-quinoline-8-carbonitrile]	8.51
[2H]c1ccc2c(N3C[C@@H](C)N4Cc5cc(N6CC7CNCC(C6)O7)ccc5[C@H]4C3)ccc(C#N)c2n1 [Example 93, 5-[(4R,10bS)-4-methyl-8-(9-oxa-3,7-diazabicyclo[3.3.1]nonan-3-yl)-3,4,6,10b-tetrahydro-1H-pyrazino[2,1-a]isoindol-2-yl]-2-deuterio-quinoline-8-carbonitrile]	8.42
CO[C@@H]1CN(c2ccc3c(c2)CN2[C@H](C)CN(c4ccc(C#N)n5nccc45)C[C@H]32)C[C@H]1N [Example 94, 4-[(4R,10bS)-8-[(3R,4R)-3-amino-4-methoxy-pyrrolidin-1-yl]-4-methyl-3,4,6,10b-tetrahydro-1H-pyrazino[2,1-a]isoindol-2-yl]pyrazolo[1,5-a]pyridine-7-carbonitrile]	7.86
C[C@@H]1CN(c2ccc(C#N)n3nccc23)C[C@@H]2c3ccc(N4CC[C@@H](N)C4)cc3CN12 [Example 96, 4-[(4R,10bS)-8-[(3R)-3-aminopyrrolidin-1-yl]-4-methyl-3,4,6,10b-tetrahydro-1H-pyrazino[2,1-a]isoindol-2-yl]pyrazolo[1,5-a]pyridine-7-carbonitrile]	7.49
C[C@@H]1CN(c2ccc3c(c2)CN2[C@H](C)CN(c4ccc(C#N)n5nccc45)C[C@H]32)CCN1 [Example 97, 4-[(4R,10bS)-4-methyl-8-[(3R)-3-methylpiperazin-1-yl]-3,4,6,10b-tetrahydro-1H-pyrazino[2,1-a]isoindol-2-yl]pyrazolo[1,5-a]pyridine-7-carbonitrile]	8.30
C[C@@H]1CN(c2ccc(C#N)n3nccc23)C[C@@H]2c3ccc(N4CCOC[C@H](N)C4)cc3CN12 [Example 101, 4-[(4R,10bS)-8-[(6R)-6-amino-1,4-oxazepan-4-yl]-4-methyl-3,4,6,10b-tetrahydro-1H-pyrazino[2,1-a]isoindol-2-yl]pyrazolo[1,5-a]pyridine-7-carbonitrile]	7.58
C[C@@H]1CN(c2ccc(C#N)n3nccc23)C[C@@H]2c3ccc(N4CC[C@@](C)(N)C4)cc3CN12 [Example 103, 4-[(4R,10bS)-8-[(3R)-3-amino-3-methyl-pyrrolidin-1-yl]-4-methyl-3,4,6,10b-tetrahydro-1H-pyrazino[2,1-a]isoindol-2-yl]pyrazolo[1,5-a]pyridine-7-carbonitrile]	7.59
CO[C@@H]1CN(c2ccc3c(c2)CN2[C@H](C)CN(c4ccc(C#N)n5nccc45)C[C@H]32)CC[C@H]1N [Example 104, 4-[(4R,10bS)-8-[(3R,4R)-4-amino-3-methoxy-1-piperidyl]-4-methyl-3,4,6,10b-tetrahydro-1H-pyrazino[2,1-a]isoindol-2-yl]pyrazolo[1,5-a]pyridine-7-carbonitrile]	8.21
CO[C@H]1CCN(c2ccc3c(c2)CN2[C@H](C)CN(c4ccc(C#N)n5nccc45)C[C@H]32)C[C@H]1N [Example 106, 4-[(4R,10bS)-8-[(3R,4S)-3-amino-4-methoxy-1-piperidyl]-4-methyl-3,4,6,10b-tetrahydro-1H-pyrazino[2,1-a]isoindol-2-yl]pyrazolo[1,5-a]pyridine-7-carbonitrile]	7.65
C[C@@H]1CN(c2ccc(C#N)n3nccc23)C[C@@H]2c3ccc(N4C[C@@H](N)[C@](C)(O)C4)cc3CN12 [Example 108, 4-[(4R,10bS)-8-[(3R,4R)-4-amino-3-hydroxy-3-methyl-pyrrolidin-1-yl]-4-methyl-3,4,6,10b-tetrahydro-1H-pyrazino[2,1-a]isoindol-2-yl]pyrazolo[1,5-a]pyridine-7-carbonitrile]	7.76
C[C@@H]1CN(c2ccc(C#N)n3nccc23)C[C@@H]2c3ccc(N4C[C@@H](N)[C@H](O)C4)cc3CN12 [Example 110, 4-[(4R,10bS)-8-[(3R,4R)-3-amino-4-hydroxy-pyrrolidin-1-yl]-4-methyl-3,4,6,10b-tetrahydro-1H-pyrazino[2,1-a]isoindol-2-yl]pyrazolo[1,5-a]pyridine-7-carbonitrile]	7.72
C[C@@H]1CN(c2ccc(C#N)n3ncc(F)c23)C[C@@H]2c3ccc(N4C[C@H](N)[C@@](C)(O)C4)cc3CN12 [Example 112, 4-[(4R,10bS)-8-[(3S,4S)-4-amino-3-hydroxy-3-methyl-pyrrolidin-1-yl]-4-methyl-3,4,6,10b-tetrahydro-1H-pyrazino[2,1-a]isoindol-2-yl]-3-fluoro-pyrazolo[1,5-a]pyridine-7-carbonitrile]	7.94
CO[C@@H]1CN(c2ccc3c(c2)CN2[C@H](C)CN(c4ccc(C#N)n5ncc(F)c45)C[C@H]32)C[C@H]1N [Example 113, 4-[(4R,10bS)-8-[(3R,4R)-3-amino-4-methoxy-pyrrolidin-1-yl]-4-methyl-3,4,6,10b-tetrahydro-1H-pyrazino[2,1-a]isoindol-2-yl]-3-fluoro-pyrazolo[1,5-a]pyridine-7-carbonitrile]	8.22

More lines, in order of rising pIC50, values ahead:

pIC50	Structure (SMILES)
7.55	C[C@@H]1CN(c2ccc(C#N)n3nccc23)C[C@@H]2c3ccc(N4C[C@H](N)[C@@](C)(O)C4)cc3CN12 [Example 109, 4-[(4R,10bS)-8-[(3S,4S)-4-amino-3-hydroxy-3-methyl-pyrrolidin-1-yl]-4-methyl-3,4,6,10b-tetrahydro-1H-pyrazino[2,1-a]isoindol-2-yl]pyrazolo[1,5-a]pyridine-7-carbonitrile]
7.63	C[C@@H]1CN(c2ccc(C#N)n3nccc23)C[C@@H]2c3ccc(N[C@H]4CNC[C@H]4F)cc3CN12 [Example 98, 4-[(4R,10bS)-8-[[(3S,4R)-4-fluoropyrrolidin-3-yl]amino]-4-methyl-3,4,6,10b-tetrahydro-1H-pyrazino[2,1-a]isoindol-2-yl]pyrazolo[1,5-a]pyridine-7-carbonitrile]
7.68	CO[C@H]1CN(c2ccc3c(c2)CN2[C@H](C)CN(c4ccc(C#N)n5nccc45)C[C@H]32)C[C@@H]1N [Example 95, 4-[(4R,10bS)-8-[(3S,4S)-3-amino-4-methoxy-pyrrolidin-1-yl]-4-methyl-3,4,6,10b-tetrahydro-1H-pyrazino[2,1-a]isoindol-2-yl]pyrazolo[1,5-a]pyridine-7-carbonitrile]
7.84	C[C@@H]1CN(c2ccc(C#N)n3nccc23)C[C@@H]2c3ccc(N4CC5CNCC(C4)O5)cc3CN12 [Example 107, 4-[(4R,10bS)-4-methyl-8-(9-oxa-3,7-diazabicyclo[3.3.1]nonan-3-yl)-3,4,6,10b-tetrahydro-1H-pyrazino[2,1-a]isoindol-2-yl]pyrazolo[1,5-a]pyridine-7-carbonitrile]
7.85	C[C@@H]1CN(c2ccc(C#N)n3nccc23)C[C@@H]2c3ccc(N4C[C@H](N)[C@@H](O)C4)cc3CN12 [Example 111, 4-[(4R,10bS)-8-[(3S,4S)-3-amino-4-hydroxy-pyrrolidin-1-yl]-4-methyl-3,4,6,10b-tetrahydro-1H-pyrazino[2,1-a]isoindol-2-yl]pyrazolo[1,5-a]pyridine-7-carbonitrile]
8.31	CO[C@@H]1CN(c2ccc3c(c2)CN2[C@H](C)CN(c4ccc(C#N)n5nccc45)C[C@H]32)CC[C@@H]1N [Example 105, 4-[(4R,10bS)-8-[(3R,4S)-4-amino-3-methoxy-1-piperidyl]-4-methyl-3,4,6,10b-tetrahydro-1H-pyrazino[2,1-a]isoindol-2-yl]pyrazolo[1,5-a]pyridine-7-carbonitrile]

— US12157746B2, “Tetrahydro-1H-pyrazino[2,1-a]isoindolylquinoline compounds for the treatment of autoimmune disease” (F. HOFFMANN-LA ROCHE AG, priority 2018, dated 2024)
